Where two headings read alike, the source gives them in different places.
Columns and labels:
5HT2C receptors = target: T1, 5HT2C receptors (Homo sapiens, UniProt P28335); test: Human 5-HT2C functional high throughput screening assay in CHO-K1 cells (calcium flux); assay type: cell-based; parameters: expressed in transfected cells; host or cells: CHO-K1 cells; conditions: for EC50: CHO-K1 cells, calcium flux; for Emax: CHO-K1, 5-HT2C, maximum functional response as percentage relative to the effect of serotonin
T1 sequence (P28335 33-458): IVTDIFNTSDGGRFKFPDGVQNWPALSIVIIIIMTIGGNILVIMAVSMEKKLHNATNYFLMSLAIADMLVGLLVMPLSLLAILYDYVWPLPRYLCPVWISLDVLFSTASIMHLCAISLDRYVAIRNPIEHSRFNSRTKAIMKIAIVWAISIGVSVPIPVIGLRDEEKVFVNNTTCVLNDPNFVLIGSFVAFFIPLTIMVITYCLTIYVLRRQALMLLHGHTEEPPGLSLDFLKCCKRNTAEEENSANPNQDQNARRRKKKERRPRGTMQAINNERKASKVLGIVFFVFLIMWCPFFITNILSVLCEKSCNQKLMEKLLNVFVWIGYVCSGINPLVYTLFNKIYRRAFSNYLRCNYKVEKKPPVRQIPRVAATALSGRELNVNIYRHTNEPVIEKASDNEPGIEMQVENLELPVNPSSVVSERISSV
Outline: (§1)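 FLIPR calcium readout, ex 480/em 530 nm, 25 °C, 3 min post-addition; agonist response normalized to serotonin, 4-parameter fit → EC50, Emax (% serotonin). Cells: frozen CHO-K1 stable lines, serum-free overnight, Ca4 dye + 2.5 mM probenecid, 60 min RT dark.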

5HT2B receptors = target: T2, 5HT2B receptors (Homo sapiens, UniProt P41595); test: Human 5-HT2B functional high throughput screening assay in CHO-K1 cells (calcium flux); assay type: cell-based; conditions: for EC50: CHO-K1 cells, calcium flux
T2 construct: expressed in transfected cells; host or cells: CHO-K1 cells
Outline: as §1

[1] = 5-HT2C agonist activity, read-out: EC50
[2] = 5-HT2B agonist activity, read-out: EC50
[3] = 5-HT2B, maximum functional response as percentage relative to the effect of serotonin

T2 sequence (P41595 whole entry): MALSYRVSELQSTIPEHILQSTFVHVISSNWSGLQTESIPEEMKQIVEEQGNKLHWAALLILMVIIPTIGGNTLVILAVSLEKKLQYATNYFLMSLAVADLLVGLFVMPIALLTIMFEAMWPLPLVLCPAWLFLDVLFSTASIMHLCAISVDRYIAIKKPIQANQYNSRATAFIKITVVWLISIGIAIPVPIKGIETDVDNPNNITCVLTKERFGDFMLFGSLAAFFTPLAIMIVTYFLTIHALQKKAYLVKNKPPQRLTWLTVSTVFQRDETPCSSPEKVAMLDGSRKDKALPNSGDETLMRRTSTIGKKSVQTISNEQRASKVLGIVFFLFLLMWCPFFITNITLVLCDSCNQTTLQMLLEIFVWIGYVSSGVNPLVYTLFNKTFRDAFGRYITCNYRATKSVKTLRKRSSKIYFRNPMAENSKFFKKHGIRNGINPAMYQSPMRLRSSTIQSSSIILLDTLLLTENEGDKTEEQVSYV

| Structure (SMILES) | EC50 (5HT2C receptors; [1]) [nM] | Emax (5HT2C receptors; read-out: Emax) [%] | EC50 (5HT2B receptors; [2]) [nM] | Emax (5HT2B receptors; [3]) | Emax (5HT2C receptors) [%] | EC50 (5HT2C receptors; EC50, 5-HT2C agonist activity) [nM] | Emax (5HT2B receptors; CHO-K1) [%] | EC50 (5HT2B receptors; EC50, 5-HT2B agonist activity) [nM] | Emax (5HT2B receptors; CHO-K1, 5-HT2B, maximum functional response as percentage relative to the effect of serotonin, read-out: Emax) [%] |
| --- | --- | --- | --- | --- | --- | --- | --- | --- | --- |
| CN1C[C@H]2CNC(=O)c3cc(-c4cccc(CCO)c4)ccc3[C@@H]2C1 (relative stereo) [Example 253, Trans-8-(3-(2-hydroxyethyl)phenyl)-2-methyl-1,2,3,3a,4,5-hexahydrobenzo[c]pyrrolo[3,4-e]azepin-6(10bH)-one] | 7 | > 120 | > 10000 | inactive | – | – | – | – | – |
| O=C1Cc2ccccc2[C@@H]2CN(Cc3ccccc3)C[C@H]2N1 (relative stereo) [Example 223, Trans-2-benzyl-1,2,3,3a,4,10b-hexahydrobenzo[d]pyrrolo[3,4-b]azepin-5(6H)-one] | 5000 | 60 | > 10000 | inactive | – | – | – | – | – |
| c1cncc(-c2cccc3c2OCC[C@H]2CNC[C@H]32)c1 (relative stereo) [Example 368, Trans-7-(pyridin-3-yl)-2,3,3a,4,5,10b-hexahydro-1H-[1]benzoxepino[4,5-c]pyrrole] | – | – | – | – | 90 | 10 | 20 | 1000 | – |
| CS(=O)(=O)c1ccccc1-c1ccc2c(c1)C(=O)NC[C@@H]1CNC[C@@H]21 (relative stereo) [Example 231, Trans-8-(2-(methylsulfonyl)phenyl)-1,2,3,3a,4,5-hexahydrobenzo[c]pyrrolo[3,4-e]azepin-6(10bH)-one] | 900 | 105 | > 10000 | inactive | – | – | – | – | – |
| Clc1cc(Br)c2c(c1)[C@H]1CNC[C@@H]1CCO2 (relative stereo) [Example 394, Trans-7-bromo-9-chloro-2,3,3a,4,5,10b-hexahydro-1H-[1]benzoxepino[4,5-c]pyrrole] | – | – | – | – | 90 | 20 | 45 | 100 | – |
| COc1ccc(-c2ccc3c(c2)C(=O)NC[C@@H]2CN(C)C[C@@H]32)cc1 [Example 159, (3aR,10bR)-8-(4-Methoxyphenyl)-2-methyl-1,2,3,3a,4,5-hexahydrobenzo[e]pyrrolo[3,4-c]azepin-6(10bH)-one] | – | 110 | > 10000 | inactive | – | – | – | – | – |
| CC(=O)c1cccc(-c2ccc3c(c2)C(=O)N(C)C[C@@H]2CN(C)C[C@@H]32)c1 (relative stereo) [Example 191, Trans-8-(3-acetylphenyl)-2,5-dimethyl-1,2,3,3a,4,5-hexahydrobenzo[e]pyrrolo[3,4-c]azepin-6(10bH)-one] | 40 | 110 | > 10000 | inactive | – | – | – | – | – |
| CN1C[C@H]2CNC(=O)c3cc(CCc4ccccc4)ccc3[C@@H]2C1 (relative stereo) [Example 87, Trans-2-methyl-8-phenethyl-1,2,3,3a,4,5-hexahydrobenzo[e]pyrrolo[3,4-c]azepin-6(10bH)-one] | 38 | 90 | > 10000 | inactive | – | – | – | – | – |
| O=C1C[C@@H]2CN(Cc3ccccc3)C[C@H]2c2ccccc2N1 (relative stereo) [Example 222, Trans-2-benzyl-1,2,3,3a,4,10b-hexahydrobenzo[b]pyrrolo[3,4-d]azepin-5(6H)-one] | 400 | > 120 | > 10000 | inactive | – | – | – | – | – |
| CN1C[C@@H]2CNC(=O)c3cc(OCc4cc(F)cc(F)c4)ccc3[C@H]2C1 [Example 208, (3aS,10bS)-8-(3,5-Difluorobenzyloxy)-2-methyl-1,2,3,3a,4,5-hexahydrobenzo[e]pyrrolo[3,4-c]azepin-6(10bH)-one] | 2 | > 120 | > 10000 | inactive | – | – | – | – | – |
| C[C@H](Cc1ccccc1)Oc1ccc2c(c1)C(=O)NC[C@H]1CNC[C@H]21 [Example 181, (3aR,10bS)-8-((R)-1-Phenylpropan-2-yloxy)-1,2,3,3a,4,5-hexahydrobenzo[e]pyrrolo[3,4-c]azepin-6(10bH)-one] | 10 | > 120 | > 10000 | inactive | – | – | – | – | – |
| CN1C[C@H]2CNC(=O)c3cc(-c4ccc5nonc5c4)ccc3[C@@H]2C1 (relative stereo) [Example 195, Trans-8-(benzo[c][1,2,5]oxadiazol-5-yl)-2-methyl-1,2,3,3a,4,5-hexahydrobenzo[e]pyrrolo[3,4-c]azepin-6(10bH)-one] | 10 | > 120 | > 10000 | inactive | – | – | – | – | – |
| Fc1ccc(COc2cccc3c2OCC[C@H]2CNC[C@H]32)cc1 (relative stereo) [Example 398, Trans-7-[(4-fluorobenzyl)oxy]-2,3,3a,4,5,10b-hexahydro-1H-[1]benzoxepino[4,5-c]pyrrole] | – | – | – | – | 90 | 2 | 100 | 3 | – |
| CN1C[C@H]2CN(C)C(=O)c3cc(-c4cccc(C(C)(C)O)c4)ccc3[C@@H]2C1 (relative stereo) [Example 194, Trans-8-(3-(2-hydroxypropan-2-yl)phenyl)-2,5-dimethyl-1,2,3,3a,4,5-hexahydrobenzo[e]pyrrolo[3,4-c]azepin-6(10bH)-one] | 20 | > 120 | > 10000 | inactive | – | – | – | – | – |
| O=C1NC[C@@H]2CNC[C@H]2c2ccc(-c3ccsc3)cc21 (relative stereo) [Example 184, Trans-8-(thiophen-3-yl)-1,2,3,3a,4,5-hexahydrobenzo[e]pyrrolo[3,4-c]azepin-6(10bH)-one] | 0.3 | > 120 | > 10000 | inactive | – | – | – | – | – |
| COc1ccccc1S(=O)(=O)N1Cc2cccnc2[C@@H]2CNC[C@H]2C1 (relative stereo) [Example 354, Trans-6-[(2-methoxyphenyl)sulfonyl]-5,6,7,7a,8,9,10,10a-octahydropyrido[3,2-c]pyrrolo[3,4-e]azepine] | 300 | 80 | 200 | – | – | – | – | – | 95 |
| O=C1NC[C@@H]2CNC[C@H]2c2ccc(OCc3ccccc3F)cc21 (relative stereo) [Example 147, Trans-8-(2-fluorobenzyloxy)-1,2,3,3a,4,5-hexahydrobenzo[e]pyrrolo[3,4-c]azepin-6(10bH)-one] | – | – | – | inactive | > 120 | – | – | > 10000 | – |
| CC(O)c1cccc(-c2ccc3c(c2)C(=O)N(C)C[C@@H]2CN(C)C[C@@H]32)c1 (relative stereo) [Example 193, Trans-8-(3-(1-hydroxyethyl)phenyl)-2,5-dimethyl-1,2,3,3a,4,5-hexahydrobenzo[e]pyrrolo[3,4-c]azepin-6(10bH)-one] | 20 | > 120 | > 10000 | inactive | – | – | – | – | – |
| CN1C[C@@H]2CNC(=O)c3cc(OCc4c(F)ccc(F)c4F)ccc3[C@H]2C1 [Example 213, (3aS,10bS)-2-Methyl-8-(2,3,6-trifluorobenzyloxy)-1,2,3,3a,4,5-hexahydrobenzo[e]pyrrolo[3,4-c]azepin-6(10bH)-one] | 1 | > 120 | > 10000 | inactive | – | – | – | – | – |
| COc1cc(OC)c2c(c1)C(=O)NC[C@@H]1CNC[C@@H]21 (relative stereo) [Example 100, Trans-8,10-dimethoxy-1,2,3,3a,4,5-hexahydrobenzo[c]pyrrolo[3,4-e]azepin-6(10bH)-one] | – | – | – | – | > 120 | 3 | 70 | 900 | – |

From patent US8846951B2 (AbbVie Inc., priority 2009, dated 2014)
